Laboratory results: publication PMC11083829, “Isolation, Characterization, Genome Annotation, and Evaluation of Hyaluronidase Inhibitory Activity in Secondary Metabolites of Brevibacillus sp. JNUCC 41: A Comprehensive Analysis through Molecular Docking and Molecular Dynamics Simulation” (International Journal of Molecular Sciences, 2024)

Biological target: T1, hyaluronidase (HAase) (Bos taurus, UniProt Q2YDK3)
T1 construct: Hyaluronidase was obtained from bovine testes (Sigma-Aldrich, St. Louis, MO, USA); purchased Sigma-Aldrich; host or cells: bovine testes (tissue-derived)
T1 sequence (Q2YDK3 36-553): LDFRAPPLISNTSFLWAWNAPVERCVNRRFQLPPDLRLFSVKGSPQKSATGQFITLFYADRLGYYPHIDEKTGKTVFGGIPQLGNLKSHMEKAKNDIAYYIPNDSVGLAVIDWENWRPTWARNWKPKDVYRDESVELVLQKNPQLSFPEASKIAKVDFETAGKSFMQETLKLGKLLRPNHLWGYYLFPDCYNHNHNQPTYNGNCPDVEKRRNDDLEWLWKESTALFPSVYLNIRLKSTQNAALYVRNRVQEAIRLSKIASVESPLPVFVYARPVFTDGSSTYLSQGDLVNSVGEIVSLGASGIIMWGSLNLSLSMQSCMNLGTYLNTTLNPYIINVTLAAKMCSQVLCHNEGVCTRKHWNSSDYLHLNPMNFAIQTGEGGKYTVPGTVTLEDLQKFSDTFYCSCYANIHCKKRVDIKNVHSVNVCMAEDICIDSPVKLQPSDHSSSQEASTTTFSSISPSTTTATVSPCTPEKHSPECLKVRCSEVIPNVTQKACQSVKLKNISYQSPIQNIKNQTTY
Test: Hyaluronidase inhibitory activity enzymatic assay (HA substrate, DMAB, absorbance 540 nm)
Format: biochemical
Conditions: hyaluronidase from bovine testes; EGCG positive control
Excerpt: Luria–Bertani Broth (LB) and Lactobacilli MRS Broth (Becton, Franklin Lakes, NJ, USA) were used for the bacterial culture. Silica gel (Merck, Darmstadt, Germany) and Sephadex LH-20 gel (Sigma-Aldrich, St. Louis, MO, USA) were used for chromatographic separations. Thin-layer chromatography (TLC) plates (Merck, Darmstadt, Germany) were used for analytical purposes. Hyaluronidase was obtained from bovine testes (Sigma-Aldrich, St. Louis, MO, USA). Nuclear magnetic resonance (NMR) spectrums were obtained using JNM-ECX 400 (FT-NMR system, 400 MHz, JEOL Co., Akishima, Japan).
In the enzymatic assay, 5 μL of hyaluronidase enzyme and 12.5 mM CaCl2 samples at varying concentrations were added to a 96-well plate. The samples were reacted for 20 min and incubated at 37 °C. After the initial incubation, 25 μL of the substrate solution (HA at a concentration of 2.4 mg/mL) was added. The reaction mixture was incubated again at 37 °C for 40 min. Then, 5 μL of 0.4 N NaOH and 5 μL of 0.4 M potassium tetraborate were added to the mixture, followed by incubation at 100 °C for 3 min. After cooling, 150 μL of DMAB solution (p-dimethylaminobenzaldehyde + acetic acid + 10 N HCL) was added to the reaction mixture. The absorbance of the reaction mixture was measured at 540 nm. Epigallocatechin gallate (EGCG) was used as a positive control in this assay.

Structure (SMILES)	IC50 [µM]
O=C(O[C@@H]1Cc2c(O)cc(O)cc2O[C@@H]1c1cc(O)c(O)c(O)c1)c1cc(O)c(O)c(O)c1 [EGCG, Epigallocatechin gallate]	172
COC(=O)Cc1c[nH]c2ccccc12 [Methyl indole-3-acetate, methyl indole-3-acetate]	344
